The experiment concerns the target T1, aromatase (Homo sapiens, UniProt P11511).
T1 construct: 700 μl of aromatase preparation, usually 300-800 μg of microsomal protein per ml of assay buffer; from tissue; host or cells: microsomes
T1 sequence (P11511 1-503): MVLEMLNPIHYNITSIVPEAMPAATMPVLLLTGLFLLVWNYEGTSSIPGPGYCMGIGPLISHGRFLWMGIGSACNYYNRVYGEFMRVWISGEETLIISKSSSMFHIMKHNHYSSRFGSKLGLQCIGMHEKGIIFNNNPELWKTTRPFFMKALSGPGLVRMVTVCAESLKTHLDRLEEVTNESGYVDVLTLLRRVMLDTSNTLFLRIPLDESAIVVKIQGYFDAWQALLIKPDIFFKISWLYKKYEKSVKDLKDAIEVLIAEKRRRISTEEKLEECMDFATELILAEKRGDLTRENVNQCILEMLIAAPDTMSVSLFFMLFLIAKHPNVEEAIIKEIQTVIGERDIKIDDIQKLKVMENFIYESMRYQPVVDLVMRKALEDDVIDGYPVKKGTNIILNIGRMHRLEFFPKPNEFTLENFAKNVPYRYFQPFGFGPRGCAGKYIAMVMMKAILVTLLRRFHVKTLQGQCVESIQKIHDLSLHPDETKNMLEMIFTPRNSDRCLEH
As to the kind of experiment: time-dependent aromatase inhibition assay (preincubation, Kitz-Wilson analysis). It is filed as biochemical. Conditions: Kitz-Wilson plots. On the procedure:
In this assay, the inhibitor is preincubated with enzyme prior to assaying for activity in the presence of high substrate levels. A time-related decrease in enzyme activity can be indicative of a preferred mode of inhibition.
In the time-dependent assay, an amount of the enzyme inhibitor in 100 μl of the assay buffer described above which will provide assay concentrations which are usually between 1 nM and 10 μm are added to 35 ml centrifuge tubes containing 600 μl of the NADPH generating system. The preincubation is started by the addition of 700 μl of aromatase preparation, usually 300-800 μg of microsomal protein per ml of assay buffer. These preparations are mixed using a vortex mixer and incubated for 0, 5, 10 or 20 minutes at 25° C. […] The amount of radioactivity in the aqueous fraction is determined by scintillation procedures. The enzymatic activity for each concentration of inhibitor at each time period of preincubation is calculated as a percent of the "0" minute vehicle control arbitrarily set at 100%. Therefore, the present enzyme inhibition is expressed as a percentage: (100 percent minus percent enzyme activity with inhibitor present).
Enzyme kinetic analysis utilized Kitz-Wilson plots for time-dependent assays. […] The pseudo first-order rate constant for enzyme inactivation (kcat) and the half-time of inactivation (.tau.50) of infinite inhibitor concentrations were determined. […]

Turning to `C[C@]12CC[C@H]3[C@@H](CCC4=CC(=O)[C@H]5CNC[C@]43C5)[C@@H]1CCC2=O` [2β,19-(methyleneamino)androst-4-ene-3,17-dione], under “at infinite inhibitor concentrations”, the “.tau.50 (half-time of inactivation)” value was 2.66 min. The KI (inactivation) (inhibitor concentration giving half-maximal rate of enzyme inactivation, microsomal aromatase preparation, preincubation 0-20 min at 25° C., read-out: Ki (apparent Ki of inactivation)) came out at 259 nM.

Source of the values: patent US5126488A, “2β,19-methyleneamino bridged steroids as aromatase inhibitors” (Merrell Dow Pharmaceuticals Inc., priority 1990, dated 1992).
